Measurements reported in patent US9944647B2 (Incyte Corporation, priority 2015, dated 2018).

What follows are compounds tested against LSD-1 enzyme (Homo sapiens (Human), UniProt O60341) (assay: LANCE LSD1/KDM1A demethylase assay (LSD1 histone demethylase biochemical assay)). Details: 1 nM LSD-1 enzyme, 1 hour preincubation at 25° C., Biotin-labeled Histone H3 peptide substrate.

SMILES	IC50 [nM]
CN1CC[C@@H](COc2nc(-c3ccc(C#N)cc3)c(-c3ccc(N(C)C)nc3)c3nccn23)C1 [Example 21, 4-(8-[6-(dimethylamino)pyridin-3-yl]-5-{[(3R)-1-methylpyrrolidin-3-yl]methoxy}imidazo[1,2-c]pyrimidin-7-yl)benzonitrile]	50 to 500
COc1ccc(-c2c(-c3ccc(C#N)cc3)nc(OC[C@@H]3CCCN(C)C3)n3ccnc23)cn1 [Example 3, 4-(8-(6-methoxypyridin-3-yl)-5-{[(3R)-1-methylpiperidin-3-yl]methoxy}imidazo[1,2-c]pyrimidin-7-yl)benzonitrile]	≤ 50
CN1CCC[C@@H](COc2nc(-c3ccc(C#N)cc3)c(-c3ccc4c(cnn4C)c3)c3nccn23)C1 [Example 8, 4-(8-(1-methyl-1H-indazol-5-yl)-5-{[(3R)-1-methylpiperidin-3-yl]methoxy}imidazo[1,2-c]pyrimidin-7-yl)benzonitrile]	≤ 50
Cc1ccc(-c2c(-c3ccc(C#N)cc3)nc(N3CCC(N(C)C)CC3)n3ccnc23)cn1 [Example 112, 4-[5-[4-(dimethylamino)piperidin-1-yl]-8-(6-methylpyridin-3-yl)imidazo[1,2-c]pyrimidin-7-yl]benzonitrile]	50 to 500
COc1ncc(-c2c(-c3ccc(C#N)cc3)nc(N3CCC(N(C)C)CC3)n3ccnc23)cc1Cl [Example 104, 4-{8-(5-chloro-6-methoxypyridin-3-yl)-5-[4-(dimethylamino)piperidin-1-yl]imidazo[1,2-c]pyrimidin-7-yl}benzonitrile]	≤ 50
CN1CCC[C@@H](COc2nc(-c3ccc(C#N)cc3)c(-c3cc4oc(=O)n(C)c4cc3F)c3nccn23)C1 [Example 45, 4-(8-(5-fluoro-3-methyl-2-oxo-2,3-dihydro-1,3-benzoxazol-6-yl)-5-{[(3R)-1-methylpiperidin-3-yl]methoxy}imidazo[1,2-c]pyrimidin-7-yl)benzonitrile]	≤ 50
Cn1c(=O)oc2cc(-c3c(-c4ccc(C#N)cc4)nc(OC[C@@H]4CCCN(CCC#N)C4)n4ccnc34)ccc21 [Example 83, 4-[5-{[(3R)-1-(2-cyanoethyl)piperidin-3-yl]methoxy}-8-(3-methyl-2-oxo-2,3-dihydro-1,3-benzoxazol-6-yl)imidazo[1,2-c]pyrimidin-7-yl]benzonitrile]	≤ 50
CN(C)C1CCN(c2nc(-c3ccc(C#N)cc3)c(-c3cc(F)c4c(c3)n(C)c(=O)n4C)c3nccn23)CC1 [Example 128, 4-[5-[4-(dimethylamino)piperidin-1-yl]-8-(7-fluoro-1,3-dimethyl-2-oxo-2,3-dihydro-1H-benzimidazol-5-yl)imidazo[1,2-c]pyrimidin-7-yl]benzonitrile]	≤ 50
COc1ncc(-c2c(-c3ccc(C#N)cc3)nc(N3CCC(N(C)C)CC3)n3ccnc23)cc1C#N [Example 105, 5-{7-(4-cyanophenyl)-5-[4-(dimethylamino)piperidin-1-yl]imidazo[1,2-c]pyrimidin-8-yl}-2-methoxynicotinonitrile]	≤ 50
Cc1ccc(-c2c(-c3ccc(C#N)cc3)nc(OC[C@@H]3CCCN(C)C3)n3ccnc23)cc1CO [Example 71, 4-(8-[3-(hydroxymethyl)-4-methylphenyl]-5-{[(3R)-1-methylpiperidin-3-yl]methoxy}imidazo[1,2-c]pyrimidin-7-yl)benzonitrile]	≤ 50
COC(=O)N(C)c1ccc(-c2c(-c3ccc(C#N)cc3)nc(OC[C@@H]3CCCN(C)C3)n3ccnc23)cc1F [Example 75]	50 to 500
CN(C)C1CCN(c2nc(-c3ccc(C#N)cc3)c(-c3ccc(N(C)S(C)(=O)=O)nc3)c3nccn23)CC1 [Example 115, N-(5-{7-(4-cyanophenyl)-5-[4-(dimethylamino)piperidin-1-yl]imidazo[1,2-c]pyrimidin-8-yl}pyridin-2-yl)-N-methylmethanesulfonamide]	≤ 50
Cc1ncc(-c2c(-c3ccc(C#N)cc3)nc(N3CCC(N(C)C)CC3)n3ccnc23)cc1C(F)F [Example 132, 4-{8-[5-(difluoromethyl)-6-methylpyridin-3-yl]-5-[4-(dimethylamino)piperidin-1-yl]imidazo[1,2-c]pyrimidin-7-yl}benzonitrile]	50 to 500
CN1C(=O)COc2cc(-c3c(-c4ccc(C#N)cc4)nc(N4CCC(N(C)C)CC4)n4ccnc34)ccc21 [Example 51, 4-[5-[4-(dimethylamino)piperidin-1-yl]-8-(4-methyl-3-oxo-3,4-dihydro-2H-1,4-benzoxazin-7-yl)imidazo[1,2-c]pyrimidin-7-yl]benzonitrile]	≤ 50
CC(C)c1ccc(-c2c(-c3ccc(C#N)cc3)nc(N3CCC(N(C)C)CC3)n3ccnc23)cn1 [Example 118, 4-[5-[4-(dimethylamino)piperidin-1-yl]-8-(6-isopropylpyridin-3-yl)imidazo[1,2-c]pyrimidin-7-yl]benzonitrile]	50 to 500
CN(C)C1CCN(c2nc(-c3ccc(C#N)cc3)c(-c3cc(F)c(CO)c(F)c3)c3nccn23)CC1 [Example 90, 4-{8-[3,5-difluoro-4-(hydroxymethyl)phenyl]-5-[4-(dimethylamino)piperidin-1-yl]imidazo[1,2-c]pyrimidin-7-yl}benzonitrile]	≤ 50
CN1CCC[C@@H](COc2nc(-c3ccc(C#N)cc3)c(-c3ccc(CN4CCOCC4)c(F)c3)c3nccn23)C1 [Example 80, 4-(8-[3-fluoro-4-(morpholin-4-ylmethyl)phenyl]-5-{[(3R)-1-methylpiperidin-3-yl]methoxy}imidazo[1,2-c]pyrimidin-7-yl)benzonitrile]	≤ 50
Cc1ncc(-c2c(-c3ccc(C#N)cc3)nc(OC[C@@H]3CCCN(C)C3)n3ccnc23)cc1F [Example 74, 4-(8-(5-fluoro-6-methylpyridin-3-yl)-5-{[(3R)-1-methylpiperidin-3-yl]methoxy}imidazo[1,2-c]pyrimidin-7-yl)benzonitrile]	50 to 500
CN1CC[C@@H](COc2nc(-c3ccc(C#N)cc3)c(-c3cnc4c(c3)OCCN4C)c3nccn23)C1 [Example 24, 4-(8-(4-methyl-3,4-dihydro-2H-pyrido[3,2-b][1,4]oxazin-7-yl)-5-{[(3R)-1-methylpyrrolidin-3-yl]methoxy}imidazo[1,2-c]pyrimidin-7-yl)benzonitrile]	≤ 50
CN1CCC[C@@H](COc2nc(-c3ccc(C#N)cc3)c(-c3ccc(CN(C)C(=O)N(C)C)c(F)c3)c3nccn23)C1 [Example 85, N-[4-(7-(4-cyanophenyl)-5-{[(3R)-1-methylpiperidin-3-yl]methoxy}imidazo[1,2-c]pyrimidin-8-yl)-2-fluorobenzyl]-N,N′,N′-trimethylurea]	≤ 50
